Results reported in publication PMC9555310, “Novel inhibitors and activity-based probes targeting serine proteases” (Frontiers in Chemistry, 2022).
Several values for one entry are separate records, joined by “and”; a condition that tells them apart may be missing. Equal values may be shown once. Read-outs that look alike come from different tables or passages of the source. Each block holds one compound with its values, some of them ahead of it.

Legend:
chymotrypsin [1] = target: T1, chymotrypsin (Bos taurus, UniProt P00766); experiment: Off-target study, residual activity after 2 min pre-incubation: chymotrypsin; type: biochemical, bovine; conditions: highest concentration (50 μM); 2 min incubation, PBS pH 7.4, 37°C
T1 construct: purchased Sigma-Aldrich (supplement); Calbiochem; host or cells: bovine pancreas
Protocol: (§1) FIGURE 5 Results of “off-target“ studies. NAP849 (A), NAP800 (B) and NAP830 (C) were tested against trypsin, chymotrypsin, and NE. Samples (approx. 0.01 μg) of each protease were incubated with the indicated concentrations of test compound for 2 min, in PBS, pH 7.4, at 37°C. (D) NAP858, NAP962 and NAP849 were tested against cathepsin B at the indicated concentrations in 0.1 M MES, pH 6.1, containing 1 mM EDTA, for 2 min, at 37°C. Aliquots (approx. 10 μL) of each incubation sample were then added to a fresh sample (990 μL) of PBS for the serine proteases and MES for cathepsin B, containing the appropriate substrate for each protease, to measure their residual activity. Controls incubations were performed in the absence of test compound, but in the presence of an appropriate volume of DMF vehicle used to prepare stock solutions of each inhibitor under study.
(§2) Two elements were investigated regarding possible “off-target” effects–determining the extent of cross-reactivity of each of the new putative ABPs between the various serine protease family members and assessing their collateral inhibitory action against another mechanistic class–the cysteine proteases, using cathepsin B (CTSB) as an exemplar.
(§3) For assays requiring a pre-incubation step enzyme and inhibitor in assay buffer were incubated together, at 37 °C, for 2 min, with gentle agitation. The reaction mixture was then aliquoted (50 μL) in duplicate on a black 96-well microtitre plate followed by addition of substrate to make a final concentration of 50 μM in a total volume of 100 μL. The fluorescence production was then measured as described for the previous procedure.
(§4) Figure ST1. Results of “off-target” studies. NAP559 and NAP533 were tested against chymotrypsin, and NE. Samples (approx. 0.01 mg) of each protease were incubated with the indicated concentrations of test compound for 2 min, in PBS, pH 7.4, at 37 °C. Aliquots (approx. 10 µL) of each incubation sample were then added to a fresh sample (990 µL) of PBS containing the appropriate substrate for each protease, to measure their residual activity. Controls incubations were performed in the absence of test compound, but in the presence of an appropriate volume of DMF vehicle used to prepare stock solutions of each inhibitor under study.

plasmin [2] = target: T2, plasmin (Homo sapiens, UniProt P00747); experiment: Irreversible inhibition kinetics of plasmin (fluorogenic substrate progress curves); type: biochemical; conditions: PBS pH 7.4, 37°C, mean ± SD (n=2)
T2 construct: purchased Sigma-Aldrich (supplement); R&D Systems; host or cells: human plasma
Protocol: A range of inhibitor concentrations were prepared from a 10 mM stock solution of the test compounds (NAP533, NAP559, NAP800, NAP830, NAP849, and NAP962) in N, N-dimethylformamide (DMF). Recombinant protease activities were assayed using the cognate fluorogenic substrates as follows: trypsin (Z-Gly-Gly-Arg-NHMec), thrombin (Boc-Val-Pro-Arg-NHMec), plasmin (Boc-Val-Leu-Lys-NHMec), human neutrophil elastase (MeO-Succinyl-Ala-Ala-Pro-Val-NHMec), and chymotrypsin (Succinyl-Ala-Ala-Pro-Phe-NHMec). Each substrate was used at a final concentration of 50 μM, in the appropriate buffer for each protease. All inhibition assays were performed in microtiter plates maintained at 37°C in a final volume of 100 μL. The reaction was initiated by the addition of each protease (approx. 0.01 μg/well) and the rate of substrate hydrolysis was recorded continuously at 37°C, over a 60 min period, by measuring the rate of increase in fluorescence (at λex 360 nm, λem 480 nm) using a FLUOstar Optima microplate reader (BMG Labtech).
The resultant inhibition progress curves obtained for each inhibitor were analyzed by the kinetic models developed by [Tian and Tsou (1982)] and [Walker and Elmore (1984)], for irreversible inhibitors, with curve fitting being achieved using GraFit (Erithacus Software), as described previously ([Ferguson et al., 2016]).
FIGURE 4 Progress curves for (A), chymotrypsin-catalysed hydrolysis of Succinyl-Ala-Ala-Pro-Phe-NHMec, in the presence of varying concentrations of NAP849. (B), NE-catalysed hydrolysis of MeO-succinyl-Ala-Ala-Pro-Val-NHMec, in the presence of varying concentrations of NAP800. (C) Trypsin-catalysed of Z-Gly-Gly-Arg-NHMec, in the presence of NAP830. (D) Plasmin-catalysed hydrolysis of Boc-Val-Leu-Lys-NHMec, in the presence of varying concentrations of NAP962. Assays were carried out in PBS, pH 7.4, at 37°C, in the presence of a range of inhibitor concentrations (0.25–50 μM) and a fixed concentration (50 μM) of the appropriate substrate for each protease.
The “product progress” curves for substrate hydrolysis in the presence of an inhibitor (Figure 4) are indicative of the action of irreversible inhibitors operating through the kinetic scheme illustrated in Figure 6. In this scheme, the formation of the reversible enzyme–inhibitor complex (EI) is zcharacterized by the inhibitor constant K i. This is converted into the covalent/irreversible complex (E-I) characterized by a first-order rate constant k 3. The overall second-order rate constant for the inactivation of E by I is given by the ratio k 3/K i ([Walker and Elmore, 1984]; [Tsou, 1988]).
Fluorogenic enzyme assays were carried out on a FLUOstar OPTIMA spectro-fluorimeter (BMG Labtech) with analysis performed on MARS Data Analysis Software (BMG Labtech). Black 96-well microtitre plates were supplied by Thermo Scientific. Trypsin from porcine pancreas, plasmin from human plasma and chymotrypsin from bovine pancreas were obtained from Sigma-Aldrich. Thrombin and Cathepsin B were supplied by R and D Systems. Human Neutrophil Elastase was supplied by Calbiochem. Fluorogenic substrates Z-Gly-Gly-Arg-NHMec, Succinyl-Ala-Ala-Pro-Phe-NHMec and MeO-Succinyl-Ala-Ala-Pro-Val-NHMec were supplied by Sigma-Aldrich. Boc-Val-Pro-Arg-NHMec was obtained from R and D Systems and Boc-Val-Leu-Lys-NHMec was supplied by PeptaNova. Phosphate Buffered Saline tablets were acquired from Sigma- Aldrich.
Protease inactivation by each of the compounds under study was evaluated using a fluorogenic enzyme assays. Protease-substrate combinations used as detailed in Section 2. Inhibitors were made up as 10 mM stock solutions in either DMF or DMSO, then diluted with PBS (pH 7.4) to give appropriate working concentrations. A final volume of 100 μL was used per well. Substrate (50 μM final concentration) was added to a black 96-well microtitre plate (Thermo Scientific), in duplicate, followed by addition of inhibitor, in such a manner to give the required final concentration. […]

neutrophil elastase (NE) = target: T3, neutrophil elastase (NE) (Homo sapiens, UniProt P08246); experiment: Off-target study, residual activity after 2 min pre-incubation: NE; type: biochemical; conditions: highest concentration (50 μM); 2 min incubation, PBS pH 7.4, 37°C
T3 construct: purchased Calbiochem
T3 sequence (P08246 30-267): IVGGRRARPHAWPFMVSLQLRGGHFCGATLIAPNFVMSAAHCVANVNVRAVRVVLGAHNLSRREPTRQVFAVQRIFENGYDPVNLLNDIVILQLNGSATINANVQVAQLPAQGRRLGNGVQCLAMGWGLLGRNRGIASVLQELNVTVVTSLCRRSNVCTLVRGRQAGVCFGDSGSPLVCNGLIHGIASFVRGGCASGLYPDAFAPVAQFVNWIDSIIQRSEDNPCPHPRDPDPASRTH
Protocol: as §1, §2, §3, §4

cathepsin B (CTSB) = target: T4, cathepsin B (CTSB) (Homo sapiens, UniProt P07858); experiment: Off-target study, residual activity after 2 min pre-incubation: cathepsin B; type: biochemical; conditions: 25 and 50 μM, 0.1 M MES pH 6.1, 1 mM EDTA, 37°C
T4 construct: purchased R and D Systems
Protocol: as §1, §2, §3
Assays with Cathepsin B required a pre-activation step of the protease prior to use in the fluorogenic enzyme assays. Cathepsin B was diluted to 10 μg/ml in activation buffer (0.1 M MES, pH 6.1, containing 1 mM EDTA and 2 mM DTT) and left to stand at room temperature for 15 minutes. Activated Cathepsin B was then diluted (1:50 to give 10 ng/50 μl) with assay buffer (activation buffer minus the DTT) prior to use as described previously.

trypsin = target: T5, trypsin (Sus scrofa, UniProt P00761); conditions: cited from earlier work
T5 construct: purchased Sigma-Aldrich; host or cells: porcine pancreas

thrombin = target: T6, thrombin (Homo sapiens, UniProt P00734); experiment: Activity-based profiling of thrombin (SDS-PAGE, streptavidin-HRP western blot); type: binding; conditions: 30 min, 37°C; heavy (catalytic) chain; recapitulated in Figure 8B
T6 construct: apparent molecular mass of 31 kDa, corresponding to the heavy (catalytic) chain of the protease; purchased R&D Systems
Protocol: (§5) Samples of recombinant protease (trypsin, plasmin, thrombin, chymotrypsin, or HNE, as indicated in the relevant figure legends) were treated with each of the newly synthesized compounds at a concentration of 50 μM, for 30 min, at 37°C. A control sample (no ABP) was prepared by treating the recombinant protease with solvent vehicle (DMF) only, used to prepare the stock solution of each ABP. Samples were also pre-treated (±90°C for 30 min) before being incubated with each putative ABP. With trypsin and thrombin, further samples were prepared where Z-Arg^P-(OPh)2 or NAP559, respectively, was added 30 min prior to the addition of the ABP under examination. All treated samples were then denatured with SDS containing reducing treatment buffer (10 min at 95°C), followed by resolution by SDS-PAGE and subjected to Western blotting. Resolved proteins were then transferred onto the nitrocellulose membrane and labeled with streptavidin-HRP. The ABP–protease complex was then visualized following treatment with Luminata Forte HRP substrate.
(§6) FIGURE 8 Activity Based Profiling of Trypsin-like serine proteases. (A) trypsin was treated (±) with NAP830, for 30 min, at 37°C (± pretreatment with Z-Arg^P-(OPh)2). (B) thrombin (1 […]) was pre-treated with various concentrations of NAP559 (30 min, at 37°C) followed by treatment (±) with NAP858 for 30 min, at 37°C. (C) Plasmin was treated in turn with QUBTL1, NAP962 and NAP830, (± pre-heat inactivation at 95°C, for 10 min) for 30 min, at 37°C. […]
(§7) Following transfer, the extra protein binding sites on the membrane were blocked by addition of 3% (w/v) BSA in TBST (20 mM Tris, 137 mM NaCl, 1% (v/v) Tween 20, pH 7.6) and agitated gently at room temperature for 30 minutes. The biotin-labelled proteases were then detected by addition of Streptavidin-HRP (Vector Laboratories) in 3% (w/v) BSA in TBST at a concentration of 1:20000, for 1 hour at room temperature. […]

chymotrypsin [3] = target: T1, chymotrypsin; design: method as in Gilmore et al. (2009); conditions: ref Gilmore et al. (2009); cited from earlier work
plasmin [4] = target: T2, plasmin; experiment: Activity-based profiling of plasmin (SDS-PAGE, streptavidin-HRP western blot); type: binding; conditions: 50 μM, 30 min, 37°C
Protocol: as §5, §6, §7

plasmin [5] = target: T2, plasmin; design: method as in Martin and Walker (2017); conditions: mean ± SD (n=2), ref Martin and Walker (2017); cited from earlier work

T5 sequence (P00761 9-231): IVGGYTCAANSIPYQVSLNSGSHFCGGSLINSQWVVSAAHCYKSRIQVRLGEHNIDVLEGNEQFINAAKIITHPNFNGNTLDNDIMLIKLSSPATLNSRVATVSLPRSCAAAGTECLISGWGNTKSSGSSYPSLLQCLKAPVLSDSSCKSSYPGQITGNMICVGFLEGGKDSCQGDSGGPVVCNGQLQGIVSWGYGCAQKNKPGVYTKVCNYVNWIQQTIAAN
T2 sequence (P00747 581-810 limits assumed): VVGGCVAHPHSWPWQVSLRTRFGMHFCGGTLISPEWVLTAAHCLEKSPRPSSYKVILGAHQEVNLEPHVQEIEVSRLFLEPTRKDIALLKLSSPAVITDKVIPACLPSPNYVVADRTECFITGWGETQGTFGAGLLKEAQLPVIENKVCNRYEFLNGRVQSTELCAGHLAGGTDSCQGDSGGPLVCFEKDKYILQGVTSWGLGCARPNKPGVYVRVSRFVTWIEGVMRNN
T2 sequence (P00747 97-580 partner limits assumed): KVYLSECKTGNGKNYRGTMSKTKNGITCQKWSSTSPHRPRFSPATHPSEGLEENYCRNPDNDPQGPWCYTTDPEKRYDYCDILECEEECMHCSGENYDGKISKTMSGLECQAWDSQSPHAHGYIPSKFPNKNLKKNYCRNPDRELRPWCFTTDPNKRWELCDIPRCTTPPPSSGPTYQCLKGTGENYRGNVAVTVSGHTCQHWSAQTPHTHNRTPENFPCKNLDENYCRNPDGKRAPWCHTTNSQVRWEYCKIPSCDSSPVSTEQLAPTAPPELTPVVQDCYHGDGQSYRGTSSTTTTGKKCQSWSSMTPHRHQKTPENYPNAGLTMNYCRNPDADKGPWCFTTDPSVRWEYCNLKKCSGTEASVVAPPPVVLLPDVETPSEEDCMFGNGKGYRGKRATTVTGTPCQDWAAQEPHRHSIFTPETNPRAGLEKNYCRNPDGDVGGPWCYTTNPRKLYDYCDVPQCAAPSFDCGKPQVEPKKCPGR

inhibition of chymotrypsin (chymotrypsin [1]): < 5 % of control | Ki (plasmin [2]; Boc-Val-Leu-Lys-NHMec 50 μM): 2200 nM | k 3 (plasmin [2]; first-order rate constant): 0.4 (± 0.04) min^−1 | k 3 / K i (plasmin [2]; second-order rate constant of inactivation): 1.7 (± 0.3) × 10^5 M^−1 min^−1 | inhibition of NE (neutrophil elastase (NE)): < 5 % of control
Compound: CC(C)[C@H](NC(=O)CN(Cc1ccccc1)C(=O)CN(CCCCN)C(=O)ON1C(=O)CCC1=O)C(N)=O [NAP533, Succinimidoyl-CO-NLys-NPhe-Val-NH2]

Compound: N=C(N)NCCCN(CC(=O)NCC(=O)NCC(=O)NCCCOCCOCCOCCCNC(=O)CCCCC1SCC2NC(=O)NC21)C(=O)ON1C(=O)CCC1=O (centres unmarked) [NAP858]
inhibitory activity against CTSB (cathepsin B (CTSB)): none of the three carbamates tested exhibited any inhibitory activity against CTSB | k 3 (trypsin; ref Ferguson et al. (2022)): 0.5 (+ 0.1) min^−1 | k 3 / K i (trypsin; ref Ferguson et al. (2022)): 34300 M⁻¹ s⁻¹ and 35000 M⁻¹ s⁻¹ | labelling of thrombin by ABP (western blot) (thrombin): detection of a band with an apparent molecular mass of 31 kDa

Compound: O=C(CCCCC1SCC2NC(=O)NC21)NCCCOCCOCCOCCCNC(=O)CCC(=O)NC(Cc1ccccc1)P(=O)(Oc1ccccc1)Oc1ccccc1 (centres unmarked) [QUBCL1, biotin-PEG-succinyl-Phe^P-(OPh)2]
Ki (chymotrypsin [3]): 1080 nM | k 3 (chymotrypsin [3]): 0.119 min⁻¹ | k 3 / K i (chymotrypsin [3]): 1850 M⁻¹ s⁻¹

Compound: N=C(N)NCCCC(NC(=O)CCC(=O)NCCCOCCOCCOCCCNC(=O)CCCCC1SCC2NC(=O)NC21)P(=O)(Oc1ccccc1)Oc1ccccc1 (centres unmarked) [QUBTL1, biotin-PEG-succinyl-arginine diphenyl phosphonate]
labelling of plasmin by ABP (western blot) (plasmin [4]): failed to detect any plasmin band | Ki (plasmin [5]): 89 nM | k 3 (plasmin [5]): 0.3 (± 0.05) min^−1 | k 3 / K i (plasmin [5]): 3.1 (± 0.2) × 10^6 M^−1 min^−1

Compound: Biotin-PEG-Succinyl-Lys^P-(OPh)2 [QUBTL2]
k 3 / K i (trypsin; ref Martin and Walker (2017)): 18300 M⁻¹ s⁻¹
